Measurements taken from publication PMC10045663, “Synthesis, In Vitro Biological Evaluation of Antiproliferative and Neuroprotective Effects and In Silico Studies of Novel 16E-Arylidene-5α,6α-epoxyepiandrosterone Derivatives” (Biomedicines, 2023).

Legend:
5AR type 2 = system: 5AR type 2; design: method as in PMID 26377677; details: read-out: IC50 against 5AR type 2; cited from earlier work
[1] = system: KB (nasopharyngeal epidermoid carcinoma); design: method as in PMID 23635011; details: read-out: IC50 against KB cells; cited from earlier work
[2] = system: T47-D cells (breast cancer); design: method as in PMID 23635011; details: MTT assay, read-out: IC50 against T47-D cells; cited from earlier work
[3] = system: MCF-7 cells (estrogen-responsive breast cancer cells); experiment: MTT cell proliferation assay, MCF-7 cells; type: cell-based; details: Homo sapiens, MCF7; MTT, 72 h, tumoral cells; read-out: Estimated IC50, MCF-7
Experimental: (§1) LNCaP, PC-3, MCF-7, PNT1A, N27, and NHDF cells were obtained from the American Type Culture Collection (ATCC; Manassas, VA, USA) and were cultured in 75 cm^2 culture flasks at 37 °C in a humidified air incubator with 5% CO2. LNCaP, PC-3, PNT1A, and N27 cells, respectively, were cultured in RPMI 1640 medium (Sigma-Aldrich, Inc. St. Louis, MO, USA) with 10% fetal bovine serum (FBS; Sigma-Aldrich, Inc. St. Louis, MO, USA) and 1% of the antibiotic mixture of 10,000 U/mL penicillin G and […] streptomycin (Sp, Sigma-Aldrich, Inc. St. Louis, MO, USA). MCF-7 cells were cultured in DMEM medium (Sigma-Aldrich, Inc. St. Louis, MO, USA) supplemented with 10% fetal bovine serum (FBS; Sigma-Aldrich, Inc. St. Louis, MO, USA) and 1% antibiotic/antimycotic (10,000 U/mL penicillin G, […] streptomycin, and 25 µg/mL amphotericin B: Ab, Sigma-Aldrich, Inc. St. Louis, MO, USA). Finally, NHDF cells were cultured in RPMI 1640 medium supplemented with 10% FBS, 2 mM L-glutamine, 10 mM HEPES, 1 mM sodium pyruvate, and 1% of the antibiotic/antimycotic Ab, and these cells were used in passages 10th to 14th. For all cell types, the medium was renewed every 2 days until cells nearly reached the confluence state. When cells reach approximately 90–95% confluence, they are gently detached by trypsinization (trypsin-EDTA solution: 0.125 g/L of trypsin and 0.02 g/L of EDTA). Before each experiment, viable cells were counted in a Neubauer chamber by a trypan-blue exclusion assay and adequately diluted in the appropriate complete cell culture medium.
(§2) All tested compounds were dissolved in dimethyl sulfoxide (DMSO; Sigma-Aldrich, Inc. St. Louis, MO, USA) at a concentration of 10 mM and stored at 4 °C. From the mother-solutions, the diluted solutions of the compounds, in different concentrations, were prepared in the respective complete culture medium before each experiment.
(§3) After reaching a confluence state, cells were trypsinized and counted by the trypan-blue exclusion assay and then seeded with an initial density of 2 × 10^4 cells/mL in 96-well culture plates (Nunc, Apogent, Denmark) and left to adhere and grow for 48 h. Subsequently, the medium was removed, and the cells were treated with compound solutions (10 and 50 µM for preliminary studies and 0.01, 0.1, 1, 10, 50, and 100 µM for concentration-response studies) in complete culture medium for 72 h. 5-Fluorouracil (5-FU) was used as a positive control, and untreated cells were used as the negative control. Compounds leading to cell proliferation relative to control clearly below 50%, at 10 µM, or clearly below 25%, at 50 µM, in the screening studies were selected to concentration-response studies in tumoral cell lines. Each experiment was performed in quadruplicate and independently at least two times. The in vitro antiproliferative effects were evaluated by the MTT assay (Sigma-Aldrich, Inc. St. Louis, MO, USA). After the incubation period, the medium was removed, and 100 µL of phosphate buffer saline (PBS, NaCl 137 mM; KCl 2.7 mM; Na2HPO4 10 mM; and KH2PO4 1.8 mM in deionized water with a pH adjusted to 7.4) were used to wash the cells. Then, 100 µL of the MTT solution (5 mg/mL) was prepared in the appropriate serum-free medium and added to each well, followed by incubation for 4 h at 37 °C. Hereafter, the MTT containing medium was removed, and the formazan crystals were dissolved in DMSO. Then, the absorbance was measured at 570 nm using a xMarkTM microplate spectrophotometer from BIO-RAD Laboratories. Cell viability values were expressed as percentages relative to the negative control.

[4] = system: N27 (rat dopaminergic neuronal cells); experiment: MTT cell proliferation assay, N27 cells; type: cell-based; details: Rattus norvegicus, N27, 72 h, non-tumoral cells, read-out: Estimated IC50, N27
Experimental: as §1, §2, §3

[5] = system: PNT1A (normal prostate cells); experiment: MTT cell proliferation assay, PNT1A cells; type: cell-based; details: Homo sapiens, PNT1A, 72 h, non-tumoral cells, read-out: Estimated IC50, PNT1A
Experimental: as §1, §2, §3

[6] = system: PC-3 cells (androgen-independent prostatic cancer); experiment: MTT cell proliferation assay, PC-3 cells; type: cell-based; details: Homo sapiens, PC-3; MTT, 72 h, tumoral cells; read-out: Estimated IC50, PC-3
Experimental: as §1, §2, §3

MCF-7 cells [7] = experiment: PI incorporation (propidium iodide staining); type: cell-based; details: 48 h
Experimental: After 48 h of being seeded at the same conditions explained in the previous (Section 2.2.4), MCF-7 cells were treated with the steroidal derivatives 19 and 5-FU at 1 and 10 µM and maintained in culture for 48 h. Untreated cells were also used as a negative control. Subsequently, cells were incubated with 20 µL/per well of a propidium iodide solution (PI; 1 mg/mL in PBS; Sigma-Aldrich Co. LLC) for 25 min at 37 °C. Then, the medium was removed, and the cells were fixed with 10% formalin for 15 min at room temperature. Cells were washed three times with PBS and incubated with 30 µL/per coverslip of Hoechst-33342 (1:500) for 10 min. After incubation, cells were washed three times with PBS. Coverslips were mounted on a drop of the fluoroshield mounting medium on a microscope slide, left to dry for 24 h, and then visualized in a Zeiss Axio Imager A1 microscope with the 40× objective.

MCF-7 cells [8] = experiment: Nearest neighbor distance analysis with ImageJ; type: cell-based; details: MCF-7, 1 and 10 µM, 48 h
Source text: The nuclear measurements were achieved by converting 16-bit photomicrographs of Hoechst 33342-stained nuclei in different studied conditions into 8-bit images. Then, these imagens were autothresholded to binary photos using the default “Make binary” function of ImageJ (v. 1.49) software (NIH Image, Bethesda, MD, USA). Cell nuclei that are touching were separated and fragments were discarded based on area through “Analyze Particle” function. This function also provides several other information, such as nuclear area (NA), circumference, and form factor [26]. Furthermore, the “Nearest Neighbor Distance” (NND) was determined. This function allows measuring the distance between each cell nucleus and the nearest ones, providing information about cell distribution.

MCF-7 cells [9] = experiment: Immunocytochemistry assay, Ki67 staining; type: cell-based; details: 48 h
Experimental: MCF-7 cells were trypsinized and counted by the trypan-blue exclusion assay, and then cells were seeded with an initial density of 3 × 10^4 cells/mL in 24-well culture plates (Nunc, Apogent, Denmark) containing circular coverslips of 10 mm diameter. Following seeding (48 h), cells were treated with 1 and 10 µM concentrations of 5-FU, as positive controls, and steroid 19 for 48 h. Untreated cells were used as a negative control. After this period, photograph shots were acquired at an optical microscope coupled with a digital camera (Supplementary Material, S2). Subsequently, the medium was removed, and cells were fixed with 10% formalin (15 min, room temperature). After fixation, cells were washed three times with PBS, permeabilized, and blocked for non-specific binding sites for 1 h with 0.5% Triton X-100 and 6% BSA at room temperature. Cells were incubated at 4 °C with 30 μL/coverslip of primary antibody, rabbit polyclonal anti-Ki67 (1:50, Abcam Plc.), prepared in 0.3% BSA and 0.1% Triton X-100, overnight. Then, cells were washed three times with PBS and incubated for 1 h, at room temperature, with 30 μL/coverslip of a solution containing the secondary antibody, Alexa Fluor 488 donkey anti-rabbit (1:200, Life Technologies), and the nuclear marker Hoechst-33342 (1:500, Life Technologies) prepared in PBS. Lastly, the coverslips were washed three times with PBS, mounted on a drop of the fluoroshield mounting medium (Abcam, Plc.) on a microscope slide, and left to dry for 24 h. Photomicrographs were taken using an Axio Imager A1 microscope (Carl Zeiss, Göttingen, Germany) with the 40 × objective.

[10] = system: NHDF cells (normal human dermal fibroblasts); experiment: MTT cell proliferation assay, NHDF cells; type: cell-based; details: Homo sapiens, NHDF, 72 h, non-tumoral cells, read-out: Estimated IC50, NHDF
Experimental: as §1, §2, §3

[11] = system: LNCaP cells (androgen-dependent prostatic cancer); experiment: MTT cell proliferation assay, LNCaP cells; type: cell-based; details: Homo sapiens, LNCaP; MTT, 72 h, tumoral cells; read-out: Estimated IC50, LNCaP
Experimental: as §1, §2, §3

For `C[C@]12CCC3C(C[C@@H]4O[C@@]45C[C@@H](O)CC[C@]35C)C1CC=C2C(=O)COC(=O)c1ccc(F)cc1` (stereo partly drawn) [21(p-fluoro)benzoyloxy-5α,6α-epoxy-3β-hydroxypregna-16-en-20-one], the IC50 (5AR type 2) is given as 0.179 µM.

For `C[C@]12CC[C@H](O)CC1=CCC1C2CC[C@]2(C)C(=O)/C(=C/c3cccc(Cl)c3)CC12` (some centres unmarked) [reference compound], the IC50 [1] is listed as 0.6 µM and the IC50 [2] is listed as 1.7 µM.

Work on `O=c1[nH]cc(F)c(=O)[nH]1` [Compound 5-FU, 5-Fluorouracil, reference compound] yielded an IC50 [3] of 6.3 µM, an IC50 [4] of 3.19 µM and an IC50 [5] of 6.48 µM. The IC50 [6] was 21.2 µM, the “PI-positive cells relative to the negative control” value (MCF-7 cells [7]; MCF-7, 1 µM) was “no significant effect” and the “PI-positive cells relative to the negative control” value (MCF-7 cells [7]; MCF-7, 10 µM) was “significantly increase”. The “cell distribution (nearest neighbor distance, NND)” value (MCF-7 cells [8]) was “more random distribution with nuclei more spaced”, the “Ki67-positive cells relative to control” value (MCF-7 cells [9]; MCF-7, 1 µM) was “none of the compounds significantly affected” and the “Ki67-positive cells relative to control” value (MCF-7 cells [9]; MCF-7, 10 µM) was “statistically significant decrease”. The IC50 [10] was 6.34 µM and the IC50 [11] was 9.43 µM.
